What follows are compounds tested on Echinochloa crus-galli (ECHCG) (assay: Pre-emergence herbicidal activity (B1)). Details: Test 1a, 1000 g/ha, evaluated after 13 days, 5=total damage to plant, 0=no damage to plant.
Type: in vivo
Summary of the method: (§1)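 Glasshouse pre-emergence spray test: compound in acetone/water (50:50), 0.5% Tween 20, applied one day after sowing; plants kept at 24/16 °C day/night, 14 h light, 65% humidity, then scored 0–5 for damage after 13 days.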

SMILES | ECHCG damage score
CN(C)c1ccc(-c2cncc(F)c2)nc1C(F)(F)F [Compound A38, 6-(5-fluoro-3-pyridyl)-N,N-dimethyl-2-(trifluoromethyl)pyridin-3-amine] | 5
CCCN(CCC)c1ccc(-c2cncc(F)c2)nc1C(F)(F)F [Compound A48] | 4
Fc1cncc(-c2ccc(NCc3cc4ccccn4n3)c(C(F)(F)F)n2)c1 [Compound A55] | 5
Fc1cncc(-c2ccc(NCc3nccs3)c(C(F)(F)F)n2)c1 [Compound A56] | 4
Nc1ccc(-c2cncc(Cl)c2)nc1C(F)(F)F [Compound A3] | 3
Cn1ccc(CNc2ccc(-c3cncc(F)c3)nc2C(F)(F)F)n1 [Compound A59] | 4
CN1CCN(c2ccc(-c3cncc(F)c3)nc2C(F)(F)F)CC1 [Compound A61] | 4

These compounds were tested on Avena fatua (AVEFA) (assay: Pre-emergence herbicidal activity (B1)). Details: Test 1a, 1000 g/ha, evaluated after 13 days, 5=total damage to plant, 0=no damage to plant.
Type: in vivo
Summary of the method: as §1

SMILES | AVEFA damage score
CN(C)c1ccc(-c2cncc(F)c2)nc1C(F)(F)F [Compound A38, 6-(5-fluoro-3-pyridyl)-N,N-dimethyl-2-(trifluoromethyl)pyridin-3-amine] | 2
CCCN(CCC)c1ccc(-c2cncc(F)c2)nc1C(F)(F)F [Compound A48] | 0
Fc1cncc(-c2ccc(NCc3cc4ccccn4n3)c(C(F)(F)F)n2)c1 [Compound A55] | 2
Fc1cncc(-c2ccc(NCc3nccs3)c(C(F)(F)F)n2)c1 [Compound A56] | 2
Nc1ccc(-c2cncc(Cl)c2)nc1C(F)(F)F [Compound A3] | 1
Cn1ccc(CNc2ccc(-c3cncc(F)c3)nc2C(F)(F)F)n1 [Compound A59] | 3
CN1CCN(c2ccc(-c3cncc(F)c3)nc2C(F)(F)F)CC1 [Compound A61] | 2

These compounds were tested on Lolium perenne (LOLPE) (assay: Pre-emergence herbicidal activity (B1)). Details: Test 1a, 1000 g/ha, evaluated after 13 days, 5=total damage to plant, 0=no damage to plant.
Type: in vivo
Summary of the method: as §1

SMILES | LOLPE damage score
CN(C)c1ccc(-c2cncc(F)c2)nc1C(F)(F)F [Compound A38, 6-(5-fluoro-3-pyridyl)-N,N-dimethyl-2-(trifluoromethyl)pyridin-3-amine] | 0
CCCN(CCC)c1ccc(-c2cncc(F)c2)nc1C(F)(F)F [Compound A48] | 0
Fc1cncc(-c2ccc(NCc3cc4ccccn4n3)c(C(F)(F)F)n2)c1 [Compound A55] | 1
Fc1cncc(-c2ccc(NCc3nccs3)c(C(F)(F)F)n2)c1 [Compound A56] | 1
Nc1ccc(-c2cncc(Cl)c2)nc1C(F)(F)F [Compound A3] | 1
Cn1ccc(CNc2ccc(-c3cncc(F)c3)nc2C(F)(F)F)n1 [Compound A59] | 1
CN1CCN(c2ccc(-c3cncc(F)c3)nc2C(F)(F)F)CC1 [Compound A61] | 0

The compounds below were run on Setaria faberi (SETFA) (assay: Pre-emergence herbicidal activity (B1)). Details: Test 1a, 1000 g/ha, evaluated after 13 days, 5=total damage to plant, 0=no damage to plant.
Type: in vivo
Summary of the method: as §1

SMILES | SETFA damage score
CN(C)c1ccc(-c2cncc(F)c2)nc1C(F)(F)F [Compound A38, 6-(5-fluoro-3-pyridyl)-N,N-dimethyl-2-(trifluoromethyl)pyridin-3-amine] | 5
CCCN(CCC)c1ccc(-c2cncc(F)c2)nc1C(F)(F)F [Compound A48] | 4
Fc1cncc(-c2ccc(NCc3cc4ccccn4n3)c(C(F)(F)F)n2)c1 [Compound A55] | 5
Fc1cncc(-c2ccc(NCc3nccs3)c(C(F)(F)F)n2)c1 [Compound A56] | 5
Nc1ccc(-c2cncc(Cl)c2)nc1C(F)(F)F [Compound A3] | 5
Cn1ccc(CNc2ccc(-c3cncc(F)c3)nc2C(F)(F)F)n1 [Compound A59] | 5
CN1CCN(c2ccc(-c3cncc(F)c3)nc2C(F)(F)F)CC1 [Compound A61] | 5

Each compound was assayed on Alopecurus myosuroides (ALOMY) (assay: Pre-emergence herbicidal activity (B1)). Details: Test 1a, 1000 g/ha, evaluated after 13 days, 5=total damage to plant, 0=no damage to plant.
Type: in vivo
Summary of the method: as §1

SMILES | ALOMY damage score
CN(C)c1ccc(-c2cncc(F)c2)nc1C(F)(F)F [Compound A38, 6-(5-fluoro-3-pyridyl)-N,N-dimethyl-2-(trifluoromethyl)pyridin-3-amine] | 0
CCCN(CCC)c1ccc(-c2cncc(F)c2)nc1C(F)(F)F [Compound A48] | 0
Fc1cncc(-c2ccc(NCc3cc4ccccn4n3)c(C(F)(F)F)n2)c1 [Compound A55] | 0
Fc1cncc(-c2ccc(NCc3nccs3)c(C(F)(F)F)n2)c1 [Compound A56] | 0
Nc1ccc(-c2cncc(Cl)c2)nc1C(F)(F)F [Compound A3] | 0
Cn1ccc(CNc2ccc(-c3cncc(F)c3)nc2C(F)(F)F)n1 [Compound A59] | 0
CN1CCN(c2ccc(-c3cncc(F)c3)nc2C(F)(F)F)CC1 [Compound A61] | 0

The compounds below were run on Triticum aestivium (TRZAW) (assay: Pre-emergence herbicidal activity (B1)). Details: Test 1a, 1000 g/ha, evaluated after 13 days, 5=total damage to plant, 0=no damage to plant.
Type: in vivo
Summary of the method: as §1

SMILES | TRAZW damage score
CN(C)c1ccc(-c2cncc(F)c2)nc1C(F)(F)F [Compound A38, 6-(5-fluoro-3-pyridyl)-N,N-dimethyl-2-(trifluoromethyl)pyridin-3-amine] | 0
CCCN(CCC)c1ccc(-c2cncc(F)c2)nc1C(F)(F)F [Compound A48] | 0
Fc1cncc(-c2ccc(NCc3cc4ccccn4n3)c(C(F)(F)F)n2)c1 [Compound A55] | 0
Fc1cncc(-c2ccc(NCc3nccs3)c(C(F)(F)F)n2)c1 [Compound A56] | 1
Nc1ccc(-c2cncc(Cl)c2)nc1C(F)(F)F [Compound A3] | 0
Cn1ccc(CNc2ccc(-c3cncc(F)c3)nc2C(F)(F)F)n1 [Compound A59] | 0
CN1CCN(c2ccc(-c3cncc(F)c3)nc2C(F)(F)F)CC1 [Compound A61] | 0

These compounds were tested on Echinochloa crus-galli (ECHCG) (assay: Post-emergence herbicidal activity (B2)). Details: Test B2a, 1000 g/ha, evaluated after 13 days, 5=total damage to plant, 0=no damage to plant.
Type: in vivo
Summary of the method: (§2)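 Damage was rated 13 days after treatment, from 0 (none) to 5 (plant killed). Treatment was a foliar spray of active ingredient in 50:50 acetone/water with 0.5% Tween 20, applied to 8-day-old plants. Plants were kept at 24/16 °C with 14 h light and 65% humidity.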

SMILES | ECHCG damage score
CN(C)c1ccc(-c2cncc(F)c2)nc1C(F)(F)F [Compound A38, 6-(5-fluoro-3-pyridyl)-N,N-dimethyl-2-(trifluoromethyl)pyridin-3-amine] | 5
CCCN(CCC)c1ccc(-c2cncc(F)c2)nc1C(F)(F)F [Compound A48] | 4
Fc1cncc(-c2ccc(NCc3cc4ccccn4n3)c(C(F)(F)F)n2)c1 [Compound A55] | 5
Fc1cncc(-c2ccc(NCc3nccs3)c(C(F)(F)F)n2)c1 [Compound A56] | 5
Nc1ccc(-c2cncc(Cl)c2)nc1C(F)(F)F [Compound A3] | 3
Cn1ccc(CNc2ccc(-c3cncc(F)c3)nc2C(F)(F)F)n1 [Compound A59] | 5
CN1CCN(c2ccc(-c3cncc(F)c3)nc2C(F)(F)F)CC1 [Compound A61] | 5

The compounds below were run on Avena fatua (AVEFA) (assay: Post-emergence herbicidal activity (B2)). Details: Test B2a, 1000 g/ha, evaluated after 13 days, 5=total damage to plant, 0=no damage to plant.
Type: in vivo
Summary of the method: as §2

SMILES | AVEFA damage score
CN(C)c1ccc(-c2cncc(F)c2)nc1C(F)(F)F [Compound A38, 6-(5-fluoro-3-pyridyl)-N,N-dimethyl-2-(trifluoromethyl)pyridin-3-amine] | 4
CCCN(CCC)c1ccc(-c2cncc(F)c2)nc1C(F)(F)F [Compound A48] | 3
Fc1cncc(-c2ccc(NCc3cc4ccccn4n3)c(C(F)(F)F)n2)c1 [Compound A55] | 4
Fc1cncc(-c2ccc(NCc3nccs3)c(C(F)(F)F)n2)c1 [Compound A56] | 4
Nc1ccc(-c2cncc(Cl)c2)nc1C(F)(F)F [Compound A3] | 3
Cn1ccc(CNc2ccc(-c3cncc(F)c3)nc2C(F)(F)F)n1 [Compound A59] | 3
CN1CCN(c2ccc(-c3cncc(F)c3)nc2C(F)(F)F)CC1 [Compound A61] | 3

The compounds below were run on Lolium perenne (LOLPE) (assay: Post-emergence herbicidal activity (B2)). Details: Test B2a, 1000 g/ha, evaluated after 13 days, 5=total damage to plant, 0=no damage to plant.
Type: in vivo
Summary of the method: as §2

SMILES | LOLPE damage score
CN(C)c1ccc(-c2cncc(F)c2)nc1C(F)(F)F [Compound A38, 6-(5-fluoro-3-pyridyl)-N,N-dimethyl-2-(trifluoromethyl)pyridin-3-amine] | 2
CCCN(CCC)c1ccc(-c2cncc(F)c2)nc1C(F)(F)F [Compound A48] | 2
Fc1cncc(-c2ccc(NCc3cc4ccccn4n3)c(C(F)(F)F)n2)c1 [Compound A55] | 3
Fc1cncc(-c2ccc(NCc3nccs3)c(C(F)(F)F)n2)c1 [Compound A56] | 3
Nc1ccc(-c2cncc(Cl)c2)nc1C(F)(F)F [Compound A3] | 2
Cn1ccc(CNc2ccc(-c3cncc(F)c3)nc2C(F)(F)F)n1 [Compound A59] | 3
CN1CCN(c2ccc(-c3cncc(F)c3)nc2C(F)(F)F)CC1 [Compound A61] | 2

Each compound was assayed on Setaria faberi (SETFA) (assay: Post-emergence herbicidal activity (B2)). Details: Test B2a, 1000 g/ha, evaluated after 13 days, 5=total damage to plant, 0=no damage to plant.
Type: in vivo
Summary of the method: as §2

SMILES | SETFA damage score
CN(C)c1ccc(-c2cncc(F)c2)nc1C(F)(F)F [Compound A38, 6-(5-fluoro-3-pyridyl)-N,N-dimethyl-2-(trifluoromethyl)pyridin-3-amine] | 5
CCCN(CCC)c1ccc(-c2cncc(F)c2)nc1C(F)(F)F [Compound A48] | 5
Fc1cncc(-c2ccc(NCc3cc4ccccn4n3)c(C(F)(F)F)n2)c1 [Compound A55] | 5
Fc1cncc(-c2ccc(NCc3nccs3)c(C(F)(F)F)n2)c1 [Compound A56] | 5
Nc1ccc(-c2cncc(Cl)c2)nc1C(F)(F)F [Compound A3] | 4
Cn1ccc(CNc2ccc(-c3cncc(F)c3)nc2C(F)(F)F)n1 [Compound A59] | 5
CN1CCN(c2ccc(-c3cncc(F)c3)nc2C(F)(F)F)CC1 [Compound A61] | 5

These compounds were tested on Alopecurus myosuroides (ALOMY) (assay: Post-emergence herbicidal activity (B2)). Details: Test B2a, 1000 g/ha, evaluated after 13 days, 5=total damage to plant, 0=no damage to plant.
Type: in vivo
Summary of the method: as §2

SMILES | ALOMY damage score
CN(C)c1ccc(-c2cncc(F)c2)nc1C(F)(F)F [Compound A38, 6-(5-fluoro-3-pyridyl)-N,N-dimethyl-2-(trifluoromethyl)pyridin-3-amine] | 1
CCCN(CCC)c1ccc(-c2cncc(F)c2)nc1C(F)(F)F [Compound A48] | 0
Fc1cncc(-c2ccc(NCc3cc4ccccn4n3)c(C(F)(F)F)n2)c1 [Compound A55] | 1
Fc1cncc(-c2ccc(NCc3nccs3)c(C(F)(F)F)n2)c1 [Compound A56] | 1
Nc1ccc(-c2cncc(Cl)c2)nc1C(F)(F)F [Compound A3] | 1
Cn1ccc(CNc2ccc(-c3cncc(F)c3)nc2C(F)(F)F)n1 [Compound A59] | 1
CN1CCN(c2ccc(-c3cncc(F)c3)nc2C(F)(F)F)CC1 [Compound A61] | 1

What follows are compounds tested on Triticum aestivium (TRZAW) (assay: Post-emergence herbicidal activity (B2)). Details: Test B2a, 1000 g/ha, evaluated after 13 days, 5=total damage to plant, 0=no damage to plant.
Type: in vivo
Summary of the method: as §2

SMILES | TRAZW damage score
CN(C)c1ccc(-c2cncc(F)c2)nc1C(F)(F)F [Compound A38, 6-(5-fluoro-3-pyridyl)-N,N-dimethyl-2-(trifluoromethyl)pyridin-3-amine] | 1
CCCN(CCC)c1ccc(-c2cncc(F)c2)nc1C(F)(F)F [Compound A48] | 1
Fc1cncc(-c2ccc(NCc3cc4ccccn4n3)c(C(F)(F)F)n2)c1 [Compound A55] | 2
Fc1cncc(-c2ccc(NCc3nccs3)c(C(F)(F)F)n2)c1 [Compound A56] | 1
Nc1ccc(-c2cncc(Cl)c2)nc1C(F)(F)F [Compound A3] | 0
Cn1ccc(CNc2ccc(-c3cncc(F)c3)nc2C(F)(F)F)n1 [Compound A59] | 2
CN1CCN(c2ccc(-c3cncc(F)c3)nc2C(F)(F)F)CC1 [Compound A61] | 1

From patent US10986838B2, “Herbicides” (SYNGENTA PARTICIPATIONS AG, priority 2016, dated 2021)
